Results as given in US9115092B2, “Substituted quinazoline and pyrido-pyrimidine derivatives” (Asana Biosciences, LLC, priority 2010, dated 2015).

Experiments:
[1] = target: T1, PI3Kα (wild-type), P110/P85α (Homo sapiens, UniProt P42336); assay: PI3 Kinase TR-FRET assay, PI3Kα (wild-type); assay type: biochemical
T1 construct: made in house; host or cells: SF9 insect cells
Outline: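 Sf9-expressed His-purified P110/P85α (5 ng) preincubated 60 min RT with compound and PIP2 in buffer with 40 mM MgCl2, 5 mM DTT; reaction started with ATP (PIP2 and ATP both 10 μM), 30 min RT. PIP3 detected by TR-FRET displacement, 665/615 nm ratio; IC50 from dose-response curves.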

[2] = target: T2, mTOR kinase (Homo sapiens, UniProt P42345); assay: mTOR kinase TR-FRET assay; assay type: biochemical; conditions: read-out: mTO R
T2 construct: purchased Millipore, USA
Outline: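 Compounds preincubated 60 min with mTOR (5 ng) in HEPES pH 7.5, EGTA, MnCl2; ULight-p70 S6K Thr389 peptide (50 nM) and ATP (20 μM) then added, 60 min at room temperature. EDTA-stopped, Eu-anti-phospho antibody detection by TR-FRET (665/615 nm); IC50 from variable-slope sigmoidal fit.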

[3] = test system: pS6RP(S235/236), PC3 cells; assay: In-cell Western assay, pS6RP(S235/236) in PC3 cells; assay type: cell-based, human; conditions: Homo sapiens, PC-3, In-cell Western
Outline: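 Overnight-seeded PC3 cells were treated 2 h with serially diluted compound, then fixed and immunostained with phospho-specific primary antibodies and Eu-labelled secondary. Time-resolved Eu signal read at 615 nm (ex 340 nm), normalised by Hoechst 33258 staining (ex 355/em 460 nm); IC50 from sigmoidal dose-response fit.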

[4] = test system: PC3 cells; assay: XTT assay for cell viability, PC3 cells; assay type: cell-based, human; conditions: Homo sapiens, PC-3, cell viability
Outline: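 PC3 cells seeded at 1000 cells/well, grown 24 h, then exposed to serial dilutions of compound for 96 h. Viability read by XTT dye at 37° C, absorbance 465 nm. EC50 from sigmoidal dose-response fit.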

T1 sequence (P42336 whole entry): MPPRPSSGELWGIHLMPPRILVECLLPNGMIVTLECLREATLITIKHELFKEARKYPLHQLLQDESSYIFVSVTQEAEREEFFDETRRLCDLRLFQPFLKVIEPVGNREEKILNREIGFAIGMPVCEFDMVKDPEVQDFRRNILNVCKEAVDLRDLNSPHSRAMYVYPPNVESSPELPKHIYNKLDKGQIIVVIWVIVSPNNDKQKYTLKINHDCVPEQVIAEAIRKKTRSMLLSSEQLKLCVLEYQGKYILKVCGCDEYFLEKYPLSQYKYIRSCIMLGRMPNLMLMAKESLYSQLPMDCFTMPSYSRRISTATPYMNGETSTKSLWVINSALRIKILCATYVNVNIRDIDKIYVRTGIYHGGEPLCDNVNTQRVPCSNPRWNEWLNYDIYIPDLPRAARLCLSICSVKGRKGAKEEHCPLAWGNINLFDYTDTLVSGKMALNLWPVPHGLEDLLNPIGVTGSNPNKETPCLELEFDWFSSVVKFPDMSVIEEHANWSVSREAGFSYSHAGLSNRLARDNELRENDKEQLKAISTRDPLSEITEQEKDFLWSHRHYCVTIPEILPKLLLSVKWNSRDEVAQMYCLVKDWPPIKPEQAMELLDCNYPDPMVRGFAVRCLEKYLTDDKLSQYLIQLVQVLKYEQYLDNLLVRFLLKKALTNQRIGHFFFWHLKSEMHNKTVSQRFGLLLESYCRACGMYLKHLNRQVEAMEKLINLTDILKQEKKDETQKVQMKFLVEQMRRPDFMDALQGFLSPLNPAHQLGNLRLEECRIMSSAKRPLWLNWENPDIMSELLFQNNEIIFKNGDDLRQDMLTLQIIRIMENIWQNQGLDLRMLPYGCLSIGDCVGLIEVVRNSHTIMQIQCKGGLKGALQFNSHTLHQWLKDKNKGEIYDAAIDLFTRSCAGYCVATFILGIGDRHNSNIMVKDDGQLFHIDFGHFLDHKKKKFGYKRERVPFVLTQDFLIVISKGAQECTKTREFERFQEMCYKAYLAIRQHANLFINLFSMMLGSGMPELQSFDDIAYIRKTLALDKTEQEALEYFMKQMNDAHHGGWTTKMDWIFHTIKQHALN
T1 sequence (P27986 whole entry partner): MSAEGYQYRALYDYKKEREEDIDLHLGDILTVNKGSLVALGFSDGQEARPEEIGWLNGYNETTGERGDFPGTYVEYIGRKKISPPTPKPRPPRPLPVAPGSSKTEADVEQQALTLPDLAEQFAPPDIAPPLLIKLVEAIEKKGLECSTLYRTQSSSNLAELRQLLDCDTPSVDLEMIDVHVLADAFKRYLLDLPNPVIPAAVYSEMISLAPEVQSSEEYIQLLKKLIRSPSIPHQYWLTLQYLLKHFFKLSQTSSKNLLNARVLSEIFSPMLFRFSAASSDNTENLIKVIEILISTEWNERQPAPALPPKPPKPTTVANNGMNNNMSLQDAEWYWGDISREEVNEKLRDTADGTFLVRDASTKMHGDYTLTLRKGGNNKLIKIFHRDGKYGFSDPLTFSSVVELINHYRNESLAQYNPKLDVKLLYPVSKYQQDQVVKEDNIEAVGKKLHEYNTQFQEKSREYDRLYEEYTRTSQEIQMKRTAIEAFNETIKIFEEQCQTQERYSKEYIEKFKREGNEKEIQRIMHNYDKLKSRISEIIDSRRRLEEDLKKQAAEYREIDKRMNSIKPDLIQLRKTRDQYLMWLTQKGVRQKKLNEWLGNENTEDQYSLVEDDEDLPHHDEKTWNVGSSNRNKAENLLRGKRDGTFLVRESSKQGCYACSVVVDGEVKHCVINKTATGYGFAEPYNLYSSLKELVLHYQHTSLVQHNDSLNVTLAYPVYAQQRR

| SMILES | IC50 [1] [nM] | IC50 [2] [nM] | IC50 [3] [nM] | IC50 [4] [nM] |
| --- | --- | --- | --- | --- |
| CN(C)C(=O)c1ccc(NC(=O)Nc2ccc(-c3nc(N4CCOCC4)c4ccc(-c5ccncc5)cc4n3)cc2F)cc1 [Example 137, 4-(3-(2-fluoro-4-(4-morpholino-7-(pyridin-4-yl)quinazolin-2-yl)phenyl)ureido)-N,N-dimethyl-benzamide] | 50 to 200 | 50 to 200 | 201 to 10000 | 201 to 10000 |
| CN(C)C(=O)c1ccc(NC(=O)Nc2ccc(-c3nc(N4CCOCC4)c4ccccc4n3)cc2)cc1 [Example 179, N,N-dimethyl-4-(3-(4-(4-morpholino-quinazolin-2-yl)phenyl)ureido)-benzamide] | 50 to 200 | < 50 | 201 to 10000 | 201 to 10000 |
| COc1cc2nc(-c3ccc(NC(=O)Nc4ccc(C(=O)N(C)C)cc4)cc3)nc(N3CCOCC3)c2cc1OC [Example 181, 4-(3-(4-(6,7-dimethoxy-4-morpholino-quinazolin-2-yl)phenyl)ureido)-N,N-dimethyl-benzamide] | 50 to 200 | < 50 | 201 to 10000 | 201 to 10000 |
| O=C(Nc1ccc(C(=O)N2CCC(O)C2)cc1)Nc1ccc(-c2nc(N3CCOCC3)c3ccc(-c4cncnc4)cc3n2)cc1 (stereo not drawn) [Example 189, 1-(4-(3-hydroxypyrrolidine-1-carbonyl)phenyl)-3-(4-(4-morpholino-7-(pyrimidin-5-yl)quinazolin-2-yl)phenyl)urea] | 201 to 10000 | < 50 | 201 to 10000 | 201 to 10000 |
| CN(C)Cc1ccc(-c2ccc3c(N4CCOCC4)nc(-c4ccc(NC(=O)Nc5ccc(C(=O)N(C)C)cc5)cc4)nc3c2)o1 [Example 190, 4-(3-(4-(7-(5-((dimethylamino)methyl)furan-2-yl)-4-morpholino-quinazolin-2-yl)phenyl)ureido)-N,N-dimethyl-benzamide] | 50 to 200 | < 50 | 201 to 10000 | 201 to 10000 |
| Cc1ccc(-c2ccc3c(N4CCOCC4)nc(-c4ccc(NC(=O)Nc5ccc(C(=O)N6CCC(N(C)C)CC6)cc5)cc4)nc3c2)o1 [Example 191, 1-(4-(4-(dimethylamino)piperidine-1-carbonyl)phenyl)-3-(4-(7-(5-methylfuran-2-yl)-4-morpholino-quinazolin-2-yl)phenyl)urea] | 201 to 10000 | 50 to 200 | 201 to 10000 | 201 to 10000 |
| Cc1ccc(-c2ccc3c(N4CCOCC4)nc(-c4ccc(NC(=O)Nc5ccc(C(=O)NCCN(C)C)cc5)cc4)nc3c2)o1 [Example 201, N-(2-(dimethylamino)ethyl)-4-(3-(4-(7-(5-methylfuran-2-yl)-4-morpholino-quinazolin-2-yl)phenyl)ureido)-benzamide] | 50 to 200 | < 50 | 501 to 5000 | 501 to 5000 |
| Cc1ccc(-c2ccc3c(N4CCOCC4)nc(-c4ccc(NC(=O)Nc5ccc(C(=O)N6CCC(O)C6)cc5)cc4)nc3c2)o1 (stereo not drawn) [Example 204, 1-(4-(3-hydroxypyrrolidine-1-carbonyl)phenyl)-3-(4-(7-(5-methylfuran-2-yl)-4-morpholino-quinazolin-2-yl)phenyl)urea] | < 50 | < 50 | < 100 | < 100 |
| CN(C)[C@@H]1CCN(C(=O)c2ccc(NC(=O)Nc3ccc(-c4nc(N5CCOCC5)c5ncc(-c6cnn(C)c6)cc5n4)cc3F)cc2)C1 [Example 205, (R)-1-(4-(3-(dimethylamino)pyrrolidine-1-carbonyl)phenyl)-3-(2-fluoro-4-(7-(1-methyl-1H-pyrazol-4-yl)-4-morpholino-pyrido[3,2-d]pyrimidin-2-yl)phenyl)urea] | < 50 | < 50 | 201 to 10000 | 201 to 10000 |
| CC(O)c1ccc(-c2ccc3c(N4CCOCC4)nc(-c4ccc(NC(=O)Nc5ccc(C(=O)N(C)C)cc5)cc4)nc3c2)o1 (stereo not drawn) [Example 206, 4-(3-(4-(7-(5-(1-hydroxyethyl)furan-2-yl)-4-morpholino-quinazolin-2-yl)phenyl)ureido)-N,N-dimethyl-benzamide] | < 50 | < 50 | 201 to 10000 | 201 to 10000 |
| CN1CCN(C(=O)c2ccc(NC(=O)Nc3ccc(-c4nc(N5CCOCC5)c5cc(F)c(-c6cccnc6)cc5n4)cc3F)cc2)CC1 [Example 211, 1-(2-fluoro-4-(6-fluoro-4-morpholino-7-(pyridin-3-yl)quinazolin-2-yl)phenyl)-3-(4-(4-methylpiperazine-1-carbonyl)phenyl)urea] | < 50 | < 50 | 201 to 10000 | < 100 |

Further lines, results first:

| IC50 [1] [nM] | IC50 [2] [nM] | IC50 [3] [nM] | IC50 [4] [nM] | SMILES |
| --- | --- | --- | --- | --- |
| < 50 | < 50 | 201 to 10000 | 201 to 10000 | CN(C)C(=O)c1ccc(NC(=O)Nc2ccc(-c3nc(N4CCOCC4)c4ncc(-c5cnn(C)c5)cc4n3)cc2)c(F)c1 [Example 134, 3-fluoro-N,N-dimethyl-4-(3-(4-(7-(1-methyl-1H-pyrazol-4-yl)-4-morpholino-pyrido[3,2-d]pyrimidin-2-yl)phenyl)ureido)-benzamide] |
| < 50 | < 50 | 201 to 10000 | 201 to 10000 | COc1ccc2c(N3CCOCC3)nc(-c3ccc(NC(=O)Nc4ccc(C(=O)N(C)C)cc4)cc3)nc2c1 [Example 180, 4-(3-(4-(7-methoxy-4-morpholino-quinazolin-2-yl)phenyl)ureido)-N,N-dimethyl-benzamide] |
| < 50 | < 50 | 201 to 10000 | 201 to 10000 | CN(C)[C@@H]1CCN(C(=O)c2ccc(NC(=O)Nc3ccc(-c4nc(N5CCOCC5)c5ncc(-c6cnn(C)c6)cc5n4)cc3)cc2)C1 [Example 184, (R)-1-(4-(3-(dimethylamino)pyrrolidine-1-carbonyl)phenyl)-3-(4-(7-(1-methyl-1H-pyrazol-4-yl)-4-morpholino-pyrido[3,2-d]pyrimidin-2-yl)phenyl)urea] |
| < 50 | < 50 | 201 to 10000 | 201 to 10000 | CN(C)C1CCN(C(=O)c2ccc(NC(=O)Nc3ccc(-c4nc(N5CCOCC5)c5ncc(-c6cnn(C)c6)cc5n4)cc3)cc2)CC1 [Example 186, 1-(4-(4-(dimethylamino)piperidine-1-carbonyl)phenyl)-3-(4-(7-(1-methyl-1H-pyrazol-4-yl)-4-morpholino-pyrido[3,2-d]pyrimidin-2-yl)phenyl)urea] |
| < 50 | < 50 | 201 to 10000 | 201 to 10000 | CN(C)[C@@H]1CCN(C(=O)c2ccc(NC(=O)Nc3ccc(-c4nc(N5CCOCC5)c5ccc(-c6cncnc6)cc5n4)cc3)cc2)C1 [Example 187, (R)-1-(4-(3-(dimethylamino)pyrrolidine-1-carbonyl)phenyl)-3-(4-(4-morpholino-7-(pyrimidin-5-yl)quinazolin-2-yl)phenyl)urea] |
| < 50 | < 50 | 201 to 10000 | 201 to 10000 | Cc1ccncc1-c1ccc2c(N3CCOCC3)nc(-c3ccc(NC(=O)Nc4ccc(C(=O)N5CCC(N(C)C)CC5)cc4)cc3)nc2c1 [Example 193, 1-(4-(4-(dimethylamino)piperidine-1-carbonyl)phenyl)-3-(4-(7-(4-methylpyridin-3-yl)-4-morpholino-quinazolin-2-yl)phenyl)urea] |
| < 50 | < 50 | 201 to 10000 | 201 to 10000 | N[C@H]1CCN(C(=O)c2ccc(NC(=O)Nc3ccc(-c4nc(N5CCOCC5)c5ccc(-c6cncnc6)cc5n4)cc3)cc2)C1 [Example 194, (S)-1-(4-(3-aminopyrrolidine-1-carbonyl)phenyl)-3-(4-(4-morpholino-7-(pyrimidin-5-yl)quinazolin-2-yl)phenyl)urea] |
| < 50 | < 50 | 201 to 10000 | 201 to 10000 | N[C@@H]1CCN(C(=O)c2ccc(NC(=O)Nc3ccc(-c4nc(N5CCOCC5)c5ccc(-c6cncnc6)cc5n4)cc3)cc2)C1 [Example 197, (R)-1-(4-(3-aminopyrrolidine-1-carbonyl)phenyl)-3-(4-(4-morpholino-7-(pyrimidin-5-yl)quinazolin-2-yl)phenyl)urea] |
| < 50 | < 50 | 201 to 10000 | 201 to 10000 | Cn1cc(-c2cnc3c(N4CCOCC4)nc(-c4ccc(NC(=O)Nc5ccc(C(N)=O)cc5)cc4)nc3c2)cn1 [Example 202, 4-(3-(4-(7-(1-methyl-1H-pyrazol-4-yl)-4-morpholino-pyrido[3,2-d]pyrimidin-2-yl)phenyl)ureido)-benzamide] |
| < 50 | < 50 | 201 to 10000 | 201 to 10000 | CN(C)C(=O)c1ccc(NC(=O)Nc2ccc(-c3nc(N4CCOCC4)c4ccc(-c5ccc(CO)o5)cc4n3)cc2F)cc1 [Example 203, 4-(3-(2-fluoro-4-(7-(5-(hydroxymethyl)furan-2-yl)-4-morpholino-quinazolin-2-yl)phenyl)ureido)-N,N-dimethyl-benzamide] |
